Measurements taken from patent US8536332B2, “Modulating signal transduction pathways with substituted pyridol [2,3-b] pyrazines” (Aeterna Zentaris GmbH, priority 2007, dated 2013).

| melting point | SMILES |
| --- | --- |
| 233 to 235 °C | COc1cc(-c2ccc3ncc(NC(=S)NC4CCCC4)nc3n2)ccc1O [Compound 519, 1-Cyclopentyl-3-[6-(4-hydroxy-3-methoxy-phenyl)-pyrido[2,3-b]pyrazin-3-yl]-thiourea] |
| 261 to 262 °C | C=CCNC(=S)Nc1cnc2ccc(-c3ccc(O)c(OC)c3)nc2n1 [Compound 521, 1-Allyl-3-[6-(4-hydroxy-3-methoxy-phenyl)-pyrido[2,3-b]pyrazin-3-yl]-thiourea] |
| 253 to 254 °C | COc1cc(-c2ccc3ncc(NC(=S)NC4CCCCC4)nc3n2)ccc1O [Compound 524, 1-Cyclohexyl-3-[6-(4-hydroxy-3-methoxy-phenyl)-pyrido[2,3-b]pyrazin-3-yl]-thiourea] |
| 224 to 226 °C | COc1cc(-c2ccc3ncc(NC(=O)Nc4ccc(Cl)cc4)nc3n2)ccc1O [Compound 529, 1-(4-Chloro-phenyl)-3-[6-(4-hydroxy-3-methoxy-phenyl)-pyrido[2,3-b]pyrazin-3-yl]-urea] |
| 265 to 268 °C | CCCNC(=O)Nc1cnc2ccc(-c3cc(Cl)c(O)c(Cl)c3)nc2n1 [Compound 551, 1-[6-(3,5-Dichloro-4-hydroxy-phenyl)-pyrido[2,3-b]pyrazin-3-yl]-3-propyl-urea] |
| 259 to 261 °C | CC(C)NC(=O)Nc1cnc2ccc(-c3cc(Cl)c(O)c(Cl)c3)nc2n1 [Compound 552, 1-[6-(3,5-Dichloro-4-hydroxy-phenyl)-pyrido[2,3-b]pyrazin-3-yl]-3-isopropyl-urea] |
| 259 to 262 °C | CN(C)c1ccc(NC(=O)Nc2cnc3ccc(-c4cc(Cl)c(O)c(Cl)c4)nc3n2)cc1 [Compound 555, 1-[6-(3,5-Dichloro-4-hydroxy-phenyl)-pyrido[2,3-b]pyrazin-3-yl]-3-(4-dimethylamino-phenyl)-urea] |
| 261 to 263 °C | O=C(Nc1cnc2ccc(-c3cc(Cl)c(O)c(Cl)c3)nc2n1)NC1CCCCCCC1 [Compound 556, 1-Cyclooctyl-3-[6-(3,5-dichloro-4-hydroxy-phenyl)-pyrido[2,3-b]pyrazin-3-yl]-urea] |
| 247 to 249 °C | CNC(=O)Nc1cnc2ccc(-c3cc(Cl)c(O)c(Cl)c3)nc2n1 [Compound 557, 1-[6-(3,5-Dichloro-4-hydroxy-phenyl)-pyrido[2,3-b]pyrazin-3-yl]-3-methyl-urea] |
| 272 to 275 °C | O=C(Nc1cnc2ccc(-c3cc(Cl)c(O)c(Cl)c3)nc2n1)NC1CCCCC1 [Compound 558, 1-Cyclohexyl-3-[6-(3,5-dichloro-4-hydroxy-phenyl)-pyrido[2,3-b]pyrazin-3-yl]-urea] |
| 289 to 291 °C | O=C(Nc1ccc(F)cc1)Nc1cnc2ccc(-c3cc(Cl)c(O)c(Cl)c3)nc2n1 [Compound 559, 1-[6-(3,5-Dichloro-4-hydroxy-phenyl)-pyrido[2,3-b]pyrazin-3-yl]-3-(4-fluoro-phenyl)-urea] |
| 253 to 255 °C | O=C(Nc1cnc2ccc(-c3cc(Cl)c(O)c(Cl)c3)nc2n1)Nc1cccs1 [Compound 560, 1-[6-(3,5-Dichloro-4-hydroxy-phenyl)-pyrido[2,3-b]pyrazin-3-yl]-3-thiophen-2-yl-urea] |
| > 300 °C | O=C(Nc1cnc2ccc(-c3cc(Cl)c(O)c(Cl)c3)nc2n1)Nc1ccccc1[N+](=O)[O-] [Compound 561, 1-[6-(3,5-Dichloro-4-hydroxy-phenyl)-pyrido[2,3-b]pyrazin-3-yl]-3-(2-nitro-phenyl)-urea] |
| 257 to 260 °C | Cc1noc(C)c1NC(=O)Nc1cnc2ccc(-c3cc(Cl)c(O)c(Cl)c3)nc2n1 [Compound 562, 1-[6-(3,5-Dichloro-4-hydroxy-phenyl)-pyrido[2,3-b]pyrazin-3-yl]-3-(3,5-dimethyl-isoxazol-4-yl)-urea] |
| 280 to 282 °C | O=C(NCCc1ccccc1)Nc1cnc2ccc(-c3cc(Cl)c(O)c(Cl)c3)nc2n1 [Compound 564, 1-[6-(3,5-Dichloro-4-hydroxy-phenyl)-pyrido[2,3-b]pyrazin-3-yl]-3-phenethyl-urea] |
| > 300 °C | O=C(Nc1ccc(N2C(=O)C=CC2=O)cc1)Nc1cnc2ccc(-c3cc(Cl)c(O)c(Cl)c3)nc2n1 [Compound 565, 1-[6-(3,5-Dichloro-4-hydroxy-phenyl)-pyrido[2,3-b]pyrazin-3-yl]-3-[4-(2,5-dioxo-2,5-dihydro-pyrrol-1-yl)-phenyl]-urea] |
| 233 to 236 °C | COc1ccc(-c2ccc3ncc(NC(=O)NC(C)C)nc3n2)cc1OC [Compound 567, 1-[6-(3,4-Dimethoxy-phenyl)-pyrido[2,3-b]pyrazin-3-yl]-3-isopropyl-urea] |
| 230 to 233 °C | COc1ccc(-c2ccc3ncc(NC(=O)NC(C)(C)C)nc3n2)cc1OC [Compound 568, 1-tert-Butyl-3-[6-(3,4-dimethoxy-phenyl)-pyrido[2,3-b]pyrazin-3-yl]-urea] |
| 262 to 263 °C | COc1ccc(-c2ccc3ncc(NC(=O)Nc4ccc(N(C)C)cc4)nc3n2)cc1OC [Compound 569, 1-[6-(3,4-Dimethoxy-phenyl)-pyrido[2,3-b]pyrazin-3-yl]-3-(4-dimethylamino-phenyl)-urea] |
| 246 to 248 °C | CCCNC(=O)Nc1cnc2ccc(-c3ccc(OC)c(OC)c3)nc2n1 [Compound 570, 1-[6-(3,4-Dimethoxy-phenyl)-pyrido[2,3-b]pyrazin-3-yl]-3-propyl-urea] |

| melting point | SMILES |
| --- | --- |
| 262 to 264 °C | COc1ccc(-c2ccc3ncc(NC(=O)NC4CCCCC4)nc3n2)cc1OC [Compound 571, 1-Cyclohexyl-3-[6-(3,4-dimethoxy-phenyl)-pyrido[2,3-b]pyrazin-3-yl]-urea] |
| 269 to 271 °C | COc1ccc(-c2ccc3ncc(NC(=O)Nc4ccc(F)cc4)nc3n2)cc1OC [Compound 572, 1-[6-(3,4-Dimethoxy-phenyl)-pyrido[2,3-b]pyrazin-3-yl]-3-(4-fluoro-phenyl)-urea] |
| 265 to 267 °C | COc1ccc(-c2ccc3ncc(NC(=O)Nc4c(C)noc4C)nc3n2)cc1OC [Compound 573, 1-[6-(3,4-Dimethoxy-phenyl)-pyrido[2,3-b]pyrazin-3-yl]-3-(3,5-dimethyl-isoxazol-4-yl)-urea] |
| 236 to 238 °C | C=CCNC(=O)Nc1cnc2ccc(-c3ccc(OC)c(OC)c3)nc2n1 [Compound 575, 1-Allyl-3-[6-(3,4-dimethoxy-phenyl)-pyrido[2,3-b]pyrazin-3-yl]-urea] |
| 261 to 264 °C | COc1ccc(-c2ccc3ncc(NC(=O)NC4CCCC4)nc3n2)cc1OC [Compound 576, 1-Cyclopentyl-3-[6-(3,4-dimethoxy-phenyl)-pyrido[2,3-b]pyrazin-3-yl]-urea] |
| 254 to 257 °C | COc1ccc(-c2ccc3ncc(NC(=O)NCCc4ccccc4)nc3n2)cc1OC [Compound 577, 1-[6-(3,4-Dimethoxy-phenyl)-pyrido[2,3-b]pyrazin-3-yl]-3-phenethyl-urea] |
| 263 to 266 °C | COc1ccc(-c2ccc3ncc(NC(=O)Nc4ccc(C)cc4)nc3n2)cc1OC [Compound 578, 1-[6-(3,4-Dimethoxy-phenyl)-pyrido[2,3-b]pyrazin-3-yl]-3-p-tolyl-urea] |
| 279 to 283 °C | COc1ccc(-c2ccc3ncc(NC(=O)Nc4ccc(N5C(=O)C=CC5=O)cc4)nc3n2)cc1OC [Compound 579, 1-[6-(3,4-Dimethoxy-phenyl)-pyrido[2,3-b]pyrazin-3-yl]-3-[4-(2,5-dioxo-2,5-dihydro-pyrrol-1-yl)-phenyl]-urea] |
| 248 to 251 °C | COc1ccc(-c2ccc3ncc(NC(=O)Nc4ccccc4)nc3n2)cc1OC [Compound 580, 1-[6-(3,4-Dimethoxy-phenyl)-pyrido[2,3-b]pyrazin-3-yl]-3-phenyl-urea] |
| 239 to 242 °C | COc1ccc(-c2ccc3ncc(NC(=O)NC4CCN(C(=O)C(F)(F)F)CC4)nc3n2)cc1OC [Compound 581, 1-[6-(3,4-Dimethoxy-phenyl)-pyrido[2,3-b]pyrazin-3-yl]-3-[1-(2,2,2-trifluoro-acetyl)-piperidin-4-yl]-urea] |
| 273 to 275 °C | Cc1cc(-c2ccc3ncc(NC(=O)Nc4ccc(N(C)C)cc4)nc3n2)cc(C)c1O [Compound 583] |
| 247 to 250 °C | Cc1cc(-c2ccc3ncc(NC(=O)NC4CCCCC4)nc3n2)cc(C)c1O [Compound 584] |
| 240 to 241 °C | CCNC(=O)Nc1cnc2ccc(-c3cc(C)c(OC)c(C)c3)nc2n1 [Compound 586, 1-Ethyl-3-[6-(4-methoxy-3,5-dimethyl-phenyl)-pyrido[2,3-b]pyrazin-3-yl]-urea] |
| 210 to 212 °C | C=CCNC(=O)Nc1cnc2ccc(-c3cc(C)c(O)c(C)c3)nc2n1 [Compound 587, 1-Allyl-3-[6-(4-hydroxy-3,5-dimethyl-phenyl)-pyrido[2,3-b]pyrazin-3-yl]-urea] |
| 267 to 269 °C | Cc1cc(-c2ccc3ncc(NC(=O)NCCc4ccccc4)nc3n2)cc(C)c1O [Compound 588, 1-[6-(4-Hydroxy-3,5-dimethyl-phenyl)-pyrido[2,3-b]pyrazin-3-yl]-3-phenethyl-urea] |
| 251 to 253 °C | Cc1cc(-c2ccc3ncc(NC(=O)NC4CCN(C(=O)C(F)(F)F)CC4)nc3n2)cc(C)c1O [Compound 589] |
| 242 to 244 °C | Cc1cc(-c2ccc3ncc(NC(=O)Nc4c(C)noc4C)nc3n2)cc(C)c1O [Compound 590, 1-(3,5-Dimethyl-isoxazol-4-yl)-3-[6-(4-hydroxy-3,5-dimethyl-phenyl)-pyrido[2,3-b]pyrazin-3-yl]-urea] |
| 271 to 273 °C | Cc1cc(-c2ccc3ncc(NC(=O)Nc4ccccc4)nc3n2)cc(C)c1O [Compound 595, 1-[6-(4-Hydroxy-3,5-dimethyl-phenyl)-pyrido[2,3-b]pyrazin-3-yl]-3-phenyl-urea] |
| 263 °C | CCNC(=O)Nc1cnc2ccc(-c3cc(C(C)(C)C)c(O)c(C(C)(C)C)c3)nc2n1 [Compound 596, 1-[6-(3,5-Di-tert-butyl-4-hydroxy-phenyl)-pyrido[2,3-b]pyrazin-3-yl]-3-ethyl-urea] |
| 221 °C | CCNC(=O)Nc1cnc2ccc(-c3cc(C)c(OC(C)C)c(C)c3)nc2n1 [Compound 597, 1-Ethyl-3-[6-(4-isopropoxy-3,5-dimethyl-phenyl)-pyrido[2,3-b]pyrazin-3-yl]-urea] |
